Measurements published in patent US11827628B2, “Compositions and methods for inhibition of the JAK pathway” (Rigel Pharmaceuticals, Inc., priority 2005, dated 2023).
Where a name gives a salt, the structure may show the parent alone. Read-outs that look alike come from different tables or passages of the source.

Test system: IL-4 stimulated expression of CD23 in human Ramos B cells (JAK-1 and JAK-3)
Test: Assay for Ramos B-Cell Line Stimulated with IL-4 (CD23 upregulation, FACS)
Format: cell-based
Details: read-out: IC50, Example 41
How it was run: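 Compound effect on IL-4-driven JAK1/JAK3 signalling is gauged as CD23 surface expression, measured by FACS after 20-24 h of stimulation with IL-4 at 50 units/mL final. A 1 h compound pre-treatment at 37 °C precedes stimulation, and IC50 is derived from the results.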

[1] = Ramos B-cell line stimulated with IL-4, CD23 expression by FACS
[2] = Homo sapiens, Ramos, Ramos B cells stimulated with IL-4, CD23 expression by FACS
[3] = Ramos B cells stimulated with IL-4, CD23 expression by FACS

| Compound | IC50 [1] | IC50 [2] | further results |
| --- | --- | --- | --- |
| Cc1nc(COc2ccc(Nc3nc(Nc4cccc(S(=O)(=O)N5CCN(C)CC5)c4)ncc3F)cc2)no1 [Compound I-274, 5-Fluoro-N4-[4-(5-methyl-1,2,4-oxadiazol-3-yl)methoxy]phenyl-N2-[3-(4-methylpiperazin-1-yl)sulfonyl]phenyl-2,4-pyrimidinediamine] | 1.17 µM | – | – |
| CC(=O)NS(=O)(=O)c1cc(Nc2ncc(F)c(Nc3ccc(OCC#N)cc3)n2)ccc1C [Compound I-38, N2-(3-Acetylaminosulfonyl-4-methyl)phenyl-N4-(4-cyanomethyleneoxy)phenyl-5-fluoro-2,4-pyrimidinediamine sodium salt] | – | – | IC50 (Ramos B-cell line stimulated with IL-4, CD23 expression by FACS, sodium salt): 6.44 µM |
| Cc1ccc(Nc2nc(Nc3cccc(S(N)(=O)=O)c3)ncc2F)cc1OCC(=O)N1CCOCC1 [Compound I-208, N2-(3-Aminosulfonylphenyl)-5-fluoro-N4-[4-methyl-3-(2-morpholinocarbonylmethyleneoxy)phenyl]-2,4-pyrimidinediamine] | 1.4 µM | – | – |
| CCN(CC)CCNS(=O)(=O)c1cccc(Nc2ncc(F)c(Nc3ccc(OCc4ccccn4)cc3)n2)c1 [Compound I-166, N2-[3-(2-N,N-Diethylaminoethyl)aminosulfonylphenyl)-5-fluoro-N4-[4-(2-pyridinyl)methyleneoxyphenyl]-2,4-pyrimidinediamine] | 0.616 µM | – | – |
| COc1cc(Nc2nc(Nc3ccc(C)c(S(N)(=O)=O)c3)ncc2F)cc(OCC#N)c1OC [Compound I-2, N2-(3-Aminosulphonyl-4-methylphenyl)-N4-(3-cyanomethoxy-4,5-dimethoxyphenyl)-5-fluoro-2,4-pyrimidinediamine] | – | – | IC50 (Homo sapiens, Ramos, Ramos B-cell line stimulated with IL-4, CD23 expression by FACS): 0.532 µM |
| CC(=O)N1CCN(C(=O)c2ccc(Nc3nc(Nc4cccc(S(N)(=O)=O)c4)ncc3F)cc2)CC1 [IX-23, N4-[4-(1-Acetyl-4-piperizinyl)carbonylphenyl]-N2-(3-Aminosulfonylphenyl)-5-fluoro-2,4-pyrimidinediamine] | – | – | IC50 [3]: 9.58 µM |
| Cc1ccc(Nc2ncc(F)c(Nc3ccc4sc(CCC#N)cc4c3)n2)cc1S(N)(=O)=O [Compound V-16, N2-(3-Aminosulfonyl-4-methylphenyl)-N4-(2-cyanoethylene-benzothiophen-5-yl)-5-fluoro-2,4-pyrimidinediamine] | – | – | IC50 [3]: 8.37 µM |

Continued, in another order:

| IC50 [1] | IC50 [2] | Compound | further results |
| --- | --- | --- | --- |
| – | 6.65 µM | COC(=O)[C@@H]1C[C@@H](Nc2nc(Nc3ccc(C)c(S(N)(=O)=O)c3)ncc2F)CN1C(=O)CC#N [VII-1, N2-(3-Aminosulfonyl-4-methylphenyl)-N4-[(2S,4R)-1-(2-cyanoacetyl)-2-methoxycarbonylpyrrolidin-4-yl]-5-fluoro-2,4-pyrimidinediamine] | – |
| – | 3.62 µM | Cc1ccc(Nc2ncc(F)c(N[C@@H]3CCN(C(=O)CC#N)C3)n2)cc1S(N)(=O)=O [IX-45, N2-(3-Aminosulfonyl-4-methylphenyl)-N4-[(4R)-1-(2-cyanoacetyl)-pyrrolidin-4-yl)-5-fluoro-2,4-pyrimidinediamine] | – |
| – | 3.7 µM | NS(=O)(=O)c1cccc(Nc2ncc(F)c(Nc3ccc(C(=O)N4CCS(=O)(=O)CC4)cc3)n2)c1 [IX-37, N2-(3-Aminosulfonylphenyl)-N4-[4-(1,1-dioxo-4-thiomorpholinyl)carbonylphenyl]-5-fluoro-2,4-pyrimidinediamine] | – |
| – | 36.2 µM | COC(=O)[C@@H]1C[C@H](Nc2nc(Nc3ccc(C)c(S(N)(=O)=O)c3)ncc2F)CN1C(=O)CC#N [VII-2, N2-(3-Aminosulfonyl-4-methylphenyl)-N4-[(2S,4S)-1-(2-cyanoacetyl)-2-methoxycarbonylpyrrolidin-4-yl]-5-fluoro-2,4-pyrimidinediamine] | – |
| – | 0.12 µM | C#CCn1ccc2ccc(Nc3nc(Nc4cccc(S(N)(=O)=O)c4)ncc3F)cc21 [IX-4, N2-(3-Aminosulfonylphenyl)-5-fluoro-N4-[1-(propyn-3-yl)indol-6-yl]-2,4-pyrimidinediamine] | – |
| 1.08 µM | – | CCC(=O)NCc1ccc(Nc2nc(Nc3ccc(S(N)(=O)=O)cc3)ncc2F)cc1 [III-35, N2-(4-aminosulfonyl)phenyl-N4-(4-ethylcarbonylaminomethyl)phenyl-5-fluoro-2,4-pyrimidinediamine] | – |
